Test results: patent US12161648B2, “Covalent targeting of E3 ligases” (The Regents of the University of California, priority 2018, dated 2024)

Assays:
[1] = system: 231MFP breast cancer cell proteomes; assay: isoTOP-ABPP proteome-wide selectivity in 231MFP proteomes in vitro; type: binding, human; conditions: 50 μM
[2] = system: 231MFP tumor xenograft; assay: 231MFP tumor xenograft growth in SCID mice; type: in vivo; conditions: 50 mg/kg ip, once per day, from day 17
Protocol: Tumor xenograft studies. Human tumor xenografts were established by transplanting cancer cells ectopically into the flank of female C.B17 severe combined immunodeficiency (SCID) mice (Taconic Farms) as previously described^66,69 In brief, cells were washed with PBS, trypsinized, and harvested in serum-containing medium. Harvested cells were washed in serum-free media and resuspended in serum-free media at a concentration of 2.0×10^4 cells/μl, and 100 μl was injected subcutaneously into the flank of each mouse. Tumors were measured with calipers. Animal experiments were conducted in accordance with the guidelines of the Institutional Animal Care and Use Committees of the University of California, Berkeley.

[3] = system: 231MFP cells; assay: Survival and proliferation assay (Hoechst stain), 231MFP; type: cell-based, human; conditions: 48 h
Protocol: Survival and Proliferation Assays. Cell survival and proliferation assays were performed as previously described using Hoechst 33342 dye (Invitrogen) according to manufacturer's protocol and as previously described^62. 231MFP cells were seeded into 96-well plates (40,000 for survival and 20,000 for proliferation) in a volume of 150 μl and allowed to adhere overnight. Cells were treated with an additional 50 μL of media containing 1:250 dilution of 1000× compound stock in DMSO. After the appropriate incubation period, media was removed from each well and 100 μl of staining solution containing 10% formalin and Hoechst 33342 dye was added to each well and incubated for 15 min in the dark at room temperature. After incubation, staining solution was removed, and wells were washed with PBS before imaging.
Survival and Proliferation Assays. Cell survival and proliferation assays were performed as previously described using Hoechst 33342 dye (Invitrogen) according to manufacturer's protocol and as previously described^14. 231MFP cells were seeded into 96-well plates (40,000 for survival and 20,000 for proliferation) in a volume of 150 μl and allowed to adhere overnight. Cells were treated with an additional 50 μL of media containing 1:250 dilution of 1000× compound stock in DMSO. […]

[4] = system: RNF114; assay: RNF114 ubiquitination assay; type: biochemical, human; conditions: 50 μM, wild-type or C8A mutant RNF114
Protocol: RNF114 ubiquitination assay. Recombinant Myc-Flag-RNF114 proteins were either purified from HEK292T cells as described above or purchased from Origene (Origene Technologies Inc., TP309752). For in vitro auto-ubiquitination assay, 0.2 μg of RNF114 in 25 μL of TBS was pre-incubated with DMSO vehicle or the covalently-acting compound for 30 min at room temperature. Subsequently, 0.1 μg of UBE1 (Boston Biochem. Inc, E-305), 0.1 μg UBE2D1 (Boston Bichem. Inc, e2-615), 5 μg of Flag-ubiquitin (Boston Bichem. Inc, u-120) in a total volume of 25 μL Tris buffer containing 2 mM ATP were added to achieve a final volume of 50 μL. The mixture was incubated at 37° C. with agitation for 1.5 h. 20 μL of Laemmli's buffer was added to quench the reaction and proteins were analyzed by western blot assay.

[5] = biological target: T1, RNF114 (Homo sapiens, UniProt Q9Y508); assay: Gel-based ABPP, competition against JNS27 labeling of pure RNF114; type: binding; conditions: covalent ligands 50 μM
T1 construct: Myc; FLAG; purchased Origene
Protocol: (§1) Gel-Based ABPP. Gel-based ABPP methods were performed as previously described^34,62,63,67. Recombinant pure human proteins were purchased from Origene. […] CuAAC was performed to append rhodamine-azide (1 μM final concentration) onto alkyne probe-labeled proteins. Samples were then diluted with 20 μL of 4× reducing Laemmli SDS sample loading buffer (Alfa Aesar) and heated at 90° C. for 5 min. The samples were separated on precast 4-20% TGX gels (Bio-Rad Laboratories, Inc.). Prior to scanning by ChemiDoc MP (Bio-Rad Laboratories, Inc), gels were fixed in a solution of 10% acetic acid, 30% ethanol for 2 hrs. Inhibition of target labeling was assessed by densitometry using ImageJ.
as §1, with “described^14.” for “described^34,62,63,67.”

[6] = biological target: T2, RNF4 (Homo sapiens, UniProt P78317); assay: Gel-based ABPP, competition against IA-rhodamine labeling of pure RNF4; type: binding
T2 construct: purchased Boston Biochem K-220
T2 sequence (P78317 1-190): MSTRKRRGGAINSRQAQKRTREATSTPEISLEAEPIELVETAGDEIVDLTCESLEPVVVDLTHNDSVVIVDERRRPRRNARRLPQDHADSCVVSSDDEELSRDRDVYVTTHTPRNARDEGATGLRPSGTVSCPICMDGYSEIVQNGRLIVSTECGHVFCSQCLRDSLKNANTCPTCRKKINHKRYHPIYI
Protocol: Gel-Based ABPP. Gel-based ABPP methods were performed as previously described^5,6,25,26. Pure recombinant human RNF4 was purchased from Boston Biochem (K-220). RNF4 (0.25 μg) was diluted into 50 μL of PBS and 1p L of either DMSO (vehicle) or covalently acting small molecule to achieve the desired concentration. After 30 minutes at room temperature, the samples were treated with 250 nM IA-Rhodamine (Setareh Biotech, 6222, prepared in anhydrous DMSO) for 1 h at room temperature. Samples were then diluted with 20 μL of 4× reducing Laemmli SDS sample loading buffer (Alfa Aesar) and heated at 90° C. for 5 min. The samples were separated on precast 4-20% Criterion TGX gels (Bio-Rad Laboratories, Inc.). Fluorescent imaging was performed on a ChemiDoc MP (Bio-Rad Laboratories, Inc) inhibition of target labeling was assessed by densitometry using ImageJ.

[7] = biological target: T2, RNF4; assay: RNF4 in vitro auto-ubiquitination assay; type: biochemical; conditions: 100 μM pre-incubation
Protocol: RNF4 ubiquitination assay. […] Subsequently, UBE1 (50 nM, Boston Biochem, E-305), UBE2D1 (400 nM Boston Bichem, E2-615), Flag-ubiquitin (4000 nM, Boston Biochem, U-120) and ATP (200 μM) were added in ubiquitination assay buffer bring the total volume to 30 μL. The mixture was incubated at RT for 30 min before quenching with 10 μL of 4× Laemmli's buffer. Ubiquitination activity was measured by separation on an SDS-PAGE gel and western blotting as previously described.

[8] = biological target: T2, RNF4; assay: LC-MS/MS analysis of covalent adduct on RNF4; type: binding; conditions: 50 μM, 30 min, tryptic digests
Protocol: LC-MS/MS analysis of RNF4. Purified RNF4 (10 μg) was diluted into 80 μL of PBS and treated for 30 min with DMSO or compound (50 μM). […] The samples were precipitated by additional of 20 μL of 100% (w/v) TCA and combined pairwise before cooling to −80 C for one hour.

[9] = biological target: T1, RNF114; assay: Gel-based ABPP, nimbolide probe labeling of pure RNF114; type: binding; conditions: probe 10 μM, 1 h

T1 sequence (Q9Y508 whole entry): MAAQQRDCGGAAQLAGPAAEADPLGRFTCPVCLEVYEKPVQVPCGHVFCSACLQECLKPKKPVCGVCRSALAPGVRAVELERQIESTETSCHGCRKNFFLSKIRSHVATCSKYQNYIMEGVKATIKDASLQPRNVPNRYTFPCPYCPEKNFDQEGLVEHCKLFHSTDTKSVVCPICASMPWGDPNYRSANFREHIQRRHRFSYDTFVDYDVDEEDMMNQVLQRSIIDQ

Q: Which results are given for `C=CC(=O)NCc1ccc(C(=O)Nc2sc(-c3ccccc3)c(C)c2C(=O)N2CCCCC2)cc1` [EN62]?
A: proteome-wide selectivity [1]: exhibited proteome-wide selectivity; 231MFP tumor xenograft growth [2]: attenuated; 231MFP breast cancer cell survival [3]: impaired; RNF114 autoubiquitination activity [4]: inhibited; hit from covalent ligand screen against RNF114 [5]: promising hit

Q: With `O=C(CCl)Nc1ccc(Oc2ccccc2)cc1` [TRH 1-23] as the compound, how does the “potency to be useful as an RNF4 recruiter” value [6] read?
A: Its value is “did not show sufficient potency”.

Q: And the “inhibition of IA-rhodamine labeling of RNF4” value ([6]; confirmation of screening hits)?
A: Its value is “reproducible and dose-responsive inhibition”.

Q: What about the “hits from covalent ligand screen against IA-rhodamine labeling of RNF4” value ([6]; covalent ligands 50 μM, 30 min pre-incubation, IA-rhodamine 250 nM 1 h) of the same compound?
A: Its value is “potential hits”.

Q: What about the RNF4 autoubiquitination activity [7] of the same compound?
A: Its RNF4 autoubiquitination activity is “does not inhibit”.

Q: And the “site-of-modification within RNF4” value [8]?
A: Its value is “covalently modified either, but not both, of the two zinc-coordinating cysteines CI32 and CI35”.

Q: For `C#CCNC(=O)c1ccc(-c2occc2[C@@H]2C[C@H]3O[C@@H]4[C@@H]5OC(=O)[C@]6(C)C=CC(=O)[C@](C)([C@@H](CC(=O)OC)[C@]4(C)C3=C2C)[C@@H]56)cc1` [nimbolide probe], which “probe labeling of pure RNF114” value [9] is on record?
A: The value was “reacts with pure human RNF114”.
